From patent publication US4087432A, “1H-imidazo(4,5-b)pyridine compounds” (Eli Lilly and Company, priority 1975, dated 1978)

How the values were obtained:
Cotton [1] = test: Postemergent injury rating, cotton; format: in vivo
Experimental: (§1) Various of the compounds to be employed as active agent in accordance with the present invention were evaluated for preemergent application to various species of plants. In this evaluation, a soil was prepared consisting of one part masonry sand and one part shredded top soil blended together in a cement mixer. One gallon of this soil was placed in a 25 × 35 cm. galvanized flat and was patted down with a bench brush until level. A three-row marker was used to make 21/2 cm. deep furrows in approximately two-fifths of the flat. Crop seeds consisting of four kernels of corn, five cotton seeds and five soybean seeds were placed in these furrows. A four-row template was then placed on the remaining soil and the indicated approximate numbers of each of the following seeds were planted, one species to each section: foxtail (millet), 80-100 seeds; velvetleaf (40-50 seeds); rough pigweed (150-250 seeds); and large crabgrass (100-150 seeds).
(§2) Sufficient soil was added to cover the entire flat. Thus, the weed seeds were covered to a depth of about 6 mm. and the crop seeds were covered to a depth of about 3 cm.
(§3) In assaying the effect of the composition as preemergent herbicides, a flat prepared as above, taken either on the day of planting or on the next day, was placed in a chamber equipped with a turntable and an air exhaust. The herbicidal composition, either a spray-type emulsion or a wettable powder, was applied to the flat with a modified DeVilbiss atomizer hooked to an air source. Twelve and one-half milliliters of the composition under test were applied to each flat either on the day of planting or the succeeding day. Injury ratings and observations as to type of injury were made eleven to twelve days after treatment. The injury rating scale used was as follows:
(§4) 4--death When more than one determination was carried out at a given rate, an average value was calculated for the injury rating. Each compound evaluated was formulated as a spray by one of the following procedures. In one method the particular compound was wetted by grinding in a mortar with one part of polyoxyethylene sorbitan monolaurate. Five hundred parts of water were added slowly to the resultant creamy paste to give an aqueous dispersion with a surfactant concentration of 0.2 percent. This dispersion was entirely satisfactory for spray application. In a second procedure the compound was dissolved in one volume of acetone, and the acetone solution was diluted with nineteen volumes of water containing 0.1 percent of polyoxyethylene sorbitan monolaurate.
(§5) Representative compounds of the present invention were evaluated for postemergent application to plants including corn and several weed species. The evaluation was carried out in accordance with the procedures of Examples 49-52 except that the test solutions were applied about 9-12 days after the preparation and seeding of the flats.

Soybean [2] = test: Postemergent injury rating, soybean; format: in vivo
Experimental: as §1, §2, §3, §4, §5

Foxtail [3] = test: Preemergent injury rating, foxtail; format: in vivo, foxtail (millet); design: key: injury rating scale on which 4 = death; settings: 2 lbs/acre
Experimental: as §1, §2, §3, §4
(§6) In the following table setting forth the results of the evaluation, column 1 gives the name of the compound under test; column 2, the rate in pounds per acre at which the compound was applied to the test flat; and the remaining columns, the injury to the particular plant seeds or seedlings as measured by the foregoing scale.

Crabgrass [4] = test: Preemergent injury rating, crabgrass; format: in vivo, large crabgrass; design: key: injury rating scale on which 4 = death; settings: 2 lbs/acre
Experimental: as §1, §2, §3, §4, §6

Crabgrass [5] = test: Postemergent injury rating, crabgrass; format: in vivo, large crabgrass; design: key: injury rating scale, 4 = death
Experimental: as §1, §2, §3, §4, §5

Soybean [6] = test: Preemergent injury rating, soybean; format: in vivo; design: key: injury rating scale on which 4 = death; settings: 2 lbs/acre
Experimental: as §1, §2, §3, §4, §6

Pigweed [7] = test: Preemergent injury rating, pigweed; format: in vivo, rough pigweed; design: key: injury rating scale on which 4 = death; settings: 2 lbs/acre
Experimental: as §1, §2, §3, §4, §6

Pigweed [8] = test: Postemergent injury rating, pigweed; format: in vivo, rough pigweed; design: key: injury rating scale, 4 = death
Experimental: as §1, §2, §3, §4, §5

Corn [9] = test: Postemergent injury rating, corn; format: in vivo; design: key: injury rating scale, 4 = death
Experimental: as §1, §2, §3, §4, §5

Foxtail [10] = test: Postemergent injury rating, foxtail; format: in vivo, foxtail (millet); design: key: injury rating scale, 4 = death
Experimental: as §1, §2, §3, §4, §5

Cotton [11] = test: Preemergent injury rating, cotton; format: in vivo; design: key: injury rating scale on which 4 = death; settings: 2 lbs/acre
Experimental: as §1, §2, §3, §4, §6

Velvet Leaf [12] = test: Preemergent injury rating, velvetleaf; format: in vivo; design: key: injury rating scale on which 4 = death; settings: 2 lbs/acre
Experimental: as §1, §2, §3, §4, §6

Corn [13] = test: Preemergent injury rating, corn; format: in vivo; design: key: injury rating scale on which 4 = death; settings: 2 lbs/acre
Experimental: as §1, §2, §3, §4, §6

Velvet Leaf [14] = test: Postemergent injury rating, velvetleaf; format: in vivo; settings: 8 lbs/acre
Experimental: as §1, §2, §3, §4, §5

Q: Which “Injury Rating, Cotton” value (Cotton [1]; 1 lbs/acre) does the source give for `CS(=O)(=O)c1cnc2nc(C(F)(F)F)n(O)c2c1` [6-(methylsulfonyl)-1-hydroxy-2-(trifluoromethyl)-1H-imidazo(4,5-b)pyridine] here?
A: Its value is 3.

Q: What about the “Injury Rating, Cotton” value (Cotton [1]; 2 lbs/acre) of the same compound?
A: Its value is 4.

Q: What about the “Injury Rating, Soybean” value (Soybean [2]; 1 lbs/acre) of the same compound?
A: Its value is 3.

Q: And the “Injury Rating, Soybean” value (Soybean [2]; 2 lbs/acre)?
A: Its value is 4.

Q: And the “Injury Rating, Foxtail” value (Foxtail [3])?
A: Its value is 2.

Q: What about the “Injury Rating, Crabgrass” value (Crabgrass [4]) of the same compound?
A: Its value is 2.

Q: And the “Injury Rating, Crabgrass” value (Crabgrass [5]; 1 lbs/acre)?
A: Its value is 2.

Q: What about the “Injury Rating, Crabgrass” value (Crabgrass [5]; 2 lbs/acre) of the same compound?
A: The value was 2.

Q: What about the “Injury Rating, Soybean” value (Soybean [6]) of the same compound?
A: The value was 2.

Q: What about the “Injury Rating, Pigweed” value (Pigweed [7]) of the same compound?
A: Its value is 3.

Q: And the “Injury Rating, Pigweed” value (Pigweed [8]; 1 lbs/acre)?
A: The value was 3.

Q: And the “Injury Rating, Pigweed” value (Pigweed [8]; 2 lbs/acre)?
A: The value was 4.

Q: What about the “Injury Rating, Corn” value (Corn [9]; 1 lbs/acre) of the same compound?
A: The value was 1.

Q: And the “Injury Rating, Corn” value (Corn [9]; 2 lbs/acre)?
A: The value was 2.

Q: What about the “Injury Rating, Foxtail” value (Foxtail [10]; 1 lbs/acre) of the same compound?
A: The value was 4.

Q: And the “Injury Rating, Foxtail” value (Foxtail [10]; 2 lbs/acre)?
A: The value was 4.

Q: And the “Injury Rating, Cotton” value (Cotton [11])?
A: Its value is 0.

Q: What about the “Injury Rating, Velvet Leaf” value (Velvet Leaf [12]) of the same compound?
A: The value was 2.

Q: What about the “Injury Rating, Corn” value (Corn [13]) of the same compound?
A: Its value is 0.

Q: Which results are given for `On1c(C(F)(F)F)nc2nc(Br)c(Cl)c(Br)c21` [5,7-dibromo-6-chloro-1-hydroxy-2-(trifluoromethyl)-1H-imidazo(4,5-b)pyridine]?
A: Injury Rating, Velvet Leaf (Velvet Leaf [14]): 3; Injury Rating, Crabgrass (Crabgrass [5]; 8 lbs/acre): 4; Injury Rating, Pigweed (Pigweed [8]; 8 lbs/acre): 4; Injury Rating, Corn (Corn [9]; 8 lbs/acre): 1; Injury Rating, Foxtail (Foxtail [10]; 8 lbs/acre): 4
